The target of assay [1] is T1, Serine/threonine-protein kinase STK11 (Homo sapiens) (UniProt Q15831).
T1 sequence (whole entry): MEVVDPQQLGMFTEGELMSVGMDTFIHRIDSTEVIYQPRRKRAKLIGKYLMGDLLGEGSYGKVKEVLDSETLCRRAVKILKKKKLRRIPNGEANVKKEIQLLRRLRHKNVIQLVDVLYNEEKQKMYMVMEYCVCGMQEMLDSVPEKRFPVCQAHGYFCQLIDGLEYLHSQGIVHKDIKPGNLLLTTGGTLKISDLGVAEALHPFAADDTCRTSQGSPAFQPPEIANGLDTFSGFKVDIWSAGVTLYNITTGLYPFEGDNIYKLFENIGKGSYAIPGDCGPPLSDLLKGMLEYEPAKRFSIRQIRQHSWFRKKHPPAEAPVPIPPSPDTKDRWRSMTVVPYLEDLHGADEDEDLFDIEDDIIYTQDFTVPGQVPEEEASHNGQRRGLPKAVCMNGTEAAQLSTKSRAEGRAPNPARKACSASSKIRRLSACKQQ
Put plainly: Selectivity interaction (Ambit KINOMEscan and KiNATiv profiling in Jurkat cells) EUB0000090b STK11. The following applies: at 1 µM. The assay is classed as cell-based.

Assay [2] concerns the target Cholecystokinin receptor type A (Homo sapiens) (UniProt P32238). The experiment in a line: Selectivity interaction (Panel of non-epigenetic targets (kinases, GPCRs, ion channels, and transporters, Eurofins) ) EUB0000271b CCKAR. The following applies: at 1 µM.
For assay [3], the target named is cAMP-dependent protein kinase catalytic subunit alpha (Homo sapiens, UniProt P17612). Put plainly: Selectivity interaction (KinomeScan (DiscoverX)) EUB0000607a PRKACA. Particulars: at 10 µM.
Assay [4] deals with T2, Ephrin type-A receptor 1 (Homo sapiens) (UniProt P21709).
T2 sequence (whole entry): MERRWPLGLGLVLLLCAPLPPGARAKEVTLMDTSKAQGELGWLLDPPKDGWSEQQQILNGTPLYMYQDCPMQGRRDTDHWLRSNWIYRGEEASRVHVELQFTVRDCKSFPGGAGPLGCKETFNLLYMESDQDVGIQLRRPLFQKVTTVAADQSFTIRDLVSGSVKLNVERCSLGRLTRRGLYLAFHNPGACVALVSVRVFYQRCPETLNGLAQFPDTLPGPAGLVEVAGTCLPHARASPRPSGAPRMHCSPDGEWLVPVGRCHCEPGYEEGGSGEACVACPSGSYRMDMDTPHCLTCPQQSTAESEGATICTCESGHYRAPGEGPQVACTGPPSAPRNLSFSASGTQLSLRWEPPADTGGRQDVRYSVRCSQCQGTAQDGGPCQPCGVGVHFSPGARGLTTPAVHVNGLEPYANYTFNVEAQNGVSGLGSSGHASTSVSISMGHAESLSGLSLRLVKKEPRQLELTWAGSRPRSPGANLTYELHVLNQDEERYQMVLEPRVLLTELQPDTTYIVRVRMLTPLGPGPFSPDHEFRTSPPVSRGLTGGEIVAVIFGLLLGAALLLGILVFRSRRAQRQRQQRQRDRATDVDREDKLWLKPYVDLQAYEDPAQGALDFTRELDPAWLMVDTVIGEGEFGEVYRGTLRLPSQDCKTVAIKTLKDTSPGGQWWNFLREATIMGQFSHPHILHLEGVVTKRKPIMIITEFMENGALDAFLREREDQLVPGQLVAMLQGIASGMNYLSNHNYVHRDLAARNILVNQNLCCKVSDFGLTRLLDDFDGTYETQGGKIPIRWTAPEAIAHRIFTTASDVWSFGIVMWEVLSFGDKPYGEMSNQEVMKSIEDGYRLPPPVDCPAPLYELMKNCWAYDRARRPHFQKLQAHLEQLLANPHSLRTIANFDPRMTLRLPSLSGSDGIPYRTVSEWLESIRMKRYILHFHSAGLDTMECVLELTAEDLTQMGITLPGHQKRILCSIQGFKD
The experiment in a line: Selectivity interaction (ActivX KiNativ screen (ex vivo kinase selectivity in human PBMCs)) EUB0001619a EPHA1. Particulars: PBMC, at 1 µM. The format is cell-based.

Assay [5] has as its target T3, Serine/threonine-protein kinase Nek5 (Homo sapiens) (UniProt Q6P3R8).
T3 sequence (whole entry): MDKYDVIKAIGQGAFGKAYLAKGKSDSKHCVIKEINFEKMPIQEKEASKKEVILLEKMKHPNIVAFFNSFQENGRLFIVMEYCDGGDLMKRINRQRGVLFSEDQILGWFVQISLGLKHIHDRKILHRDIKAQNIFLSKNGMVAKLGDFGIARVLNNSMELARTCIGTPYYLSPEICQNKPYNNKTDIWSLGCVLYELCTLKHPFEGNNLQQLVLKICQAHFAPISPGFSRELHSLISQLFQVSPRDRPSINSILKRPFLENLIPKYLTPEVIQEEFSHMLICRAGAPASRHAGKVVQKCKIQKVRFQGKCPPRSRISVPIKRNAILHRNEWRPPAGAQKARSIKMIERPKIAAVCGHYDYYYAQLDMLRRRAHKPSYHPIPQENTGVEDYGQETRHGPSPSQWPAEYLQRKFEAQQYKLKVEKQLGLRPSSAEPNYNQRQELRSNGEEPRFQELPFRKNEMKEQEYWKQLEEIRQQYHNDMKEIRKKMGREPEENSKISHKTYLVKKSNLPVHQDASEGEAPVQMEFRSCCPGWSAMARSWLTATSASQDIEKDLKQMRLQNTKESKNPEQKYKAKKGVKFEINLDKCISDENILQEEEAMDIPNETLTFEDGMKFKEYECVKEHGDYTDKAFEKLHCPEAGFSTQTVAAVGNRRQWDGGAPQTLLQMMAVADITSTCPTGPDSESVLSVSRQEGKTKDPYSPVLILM
The experiment in a line: Selectivity interaction (KinomeScan (DiscoverX)) EUB0001619a NEK5. Particulars: at 1 µM.

Assay [6] addresses Myosin light chain kinase 2, skeletal/cardiac muscle (Homo sapiens) (UniProt Q9H1R3). Put plainly: Selectivity interaction (KinomeScan (DiscoverX)) EUB0001049a MYLK2. The following applies: at 1 µM.
For assay [7], the target named is Serine/threonine-protein kinase PAK 3 (Homo sapiens) (UniProt O75914). Put plainly: Selectivity interaction (KinomeScan (DiscoverX)) EUB0000045b PAK3.
Serine/threonine-protein kinase PAK 3 (Homo sapiens), sequence (O75914 whole entry, looked up): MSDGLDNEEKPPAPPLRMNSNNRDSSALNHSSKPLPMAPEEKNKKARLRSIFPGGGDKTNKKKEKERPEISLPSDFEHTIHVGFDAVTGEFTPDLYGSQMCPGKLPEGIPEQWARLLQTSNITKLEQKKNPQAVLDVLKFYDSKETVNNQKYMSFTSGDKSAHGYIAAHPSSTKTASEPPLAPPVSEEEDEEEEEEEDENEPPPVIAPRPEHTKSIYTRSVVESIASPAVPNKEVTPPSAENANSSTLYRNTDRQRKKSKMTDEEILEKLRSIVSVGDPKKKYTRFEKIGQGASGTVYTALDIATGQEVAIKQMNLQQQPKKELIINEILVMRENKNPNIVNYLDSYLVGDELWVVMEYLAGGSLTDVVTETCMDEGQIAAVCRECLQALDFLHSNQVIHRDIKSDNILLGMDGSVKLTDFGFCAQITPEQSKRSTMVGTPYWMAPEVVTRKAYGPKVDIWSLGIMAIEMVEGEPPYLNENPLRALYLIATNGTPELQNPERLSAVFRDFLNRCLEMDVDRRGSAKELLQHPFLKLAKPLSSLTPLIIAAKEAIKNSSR

Myosin light chain kinase 2, skeletal/cardiac muscle (Homo sapiens), sequence (Q9H1R3 whole entry): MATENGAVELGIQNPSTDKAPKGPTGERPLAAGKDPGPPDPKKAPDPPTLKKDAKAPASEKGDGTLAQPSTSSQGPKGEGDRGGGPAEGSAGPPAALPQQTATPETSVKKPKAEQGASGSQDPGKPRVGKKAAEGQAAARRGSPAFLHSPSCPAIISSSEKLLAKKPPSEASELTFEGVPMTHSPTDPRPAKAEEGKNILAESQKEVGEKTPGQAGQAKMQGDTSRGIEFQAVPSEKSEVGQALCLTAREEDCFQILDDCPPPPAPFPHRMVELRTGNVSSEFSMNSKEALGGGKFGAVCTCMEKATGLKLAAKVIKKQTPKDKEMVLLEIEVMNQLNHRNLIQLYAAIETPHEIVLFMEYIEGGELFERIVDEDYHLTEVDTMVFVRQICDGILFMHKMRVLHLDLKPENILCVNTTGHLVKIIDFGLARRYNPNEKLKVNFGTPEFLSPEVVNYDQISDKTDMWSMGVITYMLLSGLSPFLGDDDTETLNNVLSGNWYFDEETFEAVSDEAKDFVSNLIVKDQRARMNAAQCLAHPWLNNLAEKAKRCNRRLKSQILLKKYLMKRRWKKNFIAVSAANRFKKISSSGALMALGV
Cholecystokinin receptor type A (Homo sapiens), sequence (P32238 whole entry): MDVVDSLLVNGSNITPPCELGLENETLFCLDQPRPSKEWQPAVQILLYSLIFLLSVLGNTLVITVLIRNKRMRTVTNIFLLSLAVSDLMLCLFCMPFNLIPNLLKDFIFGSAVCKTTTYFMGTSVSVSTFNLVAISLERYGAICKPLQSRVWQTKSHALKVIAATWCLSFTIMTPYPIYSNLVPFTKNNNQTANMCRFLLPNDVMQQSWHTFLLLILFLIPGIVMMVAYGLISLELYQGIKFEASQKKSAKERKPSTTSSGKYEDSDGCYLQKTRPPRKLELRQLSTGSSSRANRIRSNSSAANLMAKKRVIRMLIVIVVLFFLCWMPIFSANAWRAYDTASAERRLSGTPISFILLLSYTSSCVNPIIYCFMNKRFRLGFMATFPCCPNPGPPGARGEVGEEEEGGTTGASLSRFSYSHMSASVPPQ

Consider `CN(C)C/C=C/C(=O)Nc1ccc(C(=O)N2CCCC(Nc3ncc(Cl)c(-c4c[nH]c5ccccc45)n3)C2)cc1` (stereo not drawn), for which the % of control in assay [1] came to 94%.

`Cc1cc(C)cc([C@@H]2c3cc(C)ccc3NC(=O)CN2C(=O)c2ccc(Br)s2)c1`: in assay [2], the % of inhibition came to 1%.

For `CNC(=O)Nc1ccc(-c2nc(N3CC4CCC(C3)O4)c3cnn(C4CCC5(CC4)OCCO5)c3n2)cc1`, the % of control in assay [3] stood at 75%.

Consider `N#Cc1cccc(-c2c[nH]c3ncnc(N4CCOCC4)c23)c1`, for which the % of inhibition in assay [4] is -3%. In addition, in assay [5], the % of control came to 100%.

Consider `COc1cc(Nc2nc(C)cc(-c3cnn4nc(OC)ccc34)n2)cc(C(F)(F)F)c1`, for which the % of control in assay [6] is 100%.

For the molecule `C=CC(=O)Nc1cc(-n2c(=O)ccc3cnc4ccc(-c5ccc(NS(C)(=O)=O)cc5)cc4c32)ccc1C`, the % of control in assay [7] (at 1 µM) amounted to 92%; in assay [7] (at 10 µM) it was 100%.

Source of the values: ChEMBL document CHEMBL5465560, “Selectivity Literature for EUbOPEN Chemogenomic Library” (2024).
